From patent US7056715B1, “GST sequences from soybean and their use in the production of herbicide resistant plants” (Syngenta Limited, priority 1999, dated 2006)

Columns and labels:
Conditions in all cases: fomesafen 10 g ai ha^-1 to aerial tissue at approximately 10-leaf stage, visual assessment 5 days post application
[1] = system: transgenic tobacco line T82 3740 (pFT2: soybean GST 3.3 and homoglutathione synthetase); assay: Herbicide tolerance test, transgenic tobacco line T82 3740; type: in vivo, Nicotiana tabacum
Source text: (§1) 6.1 Plants with increased tolerance to the herbicides acifluorfen and fomesafen were obtained by expression in the plant host of both the active soybean GST 3.3 and the homoglutathione synthetase to further increase levels of homoglutathione, required for the enhanced efficiency function of GST 3.3. 6.2 PCR, using oligonucleotide primers hGSH-Nco1 (SEQ ID No. 21) and hGSH-Kpn1 (SEQ ID No.22) was used to introduce a 5′ Nco1 site and 3′ Kpn1 site into the […]. The resulting PCR product was purified, sequenced, digested with Nco1 and Kpn1 and ligated into the vector pMJB2 (FIG. 1). The expression cassette, comprising the double enhanced CaMV35S promoter: Glucanase II leader, hGSH synthetase cDNA and nos terminator was then excised from pMJB2 using […] and ligated into the similarly digested binary vector pMOG800 (FIG. 3). 6.3 Oligonucleotide primers 3.6-Bgl II (SEQ ID No. 23) and 3.6 Nco1 (SEQ ID No.24) were used to introduce Nco1 and Bgl II sites at the 5′ and 3′ end of the GST 3.6 cDNA respectively. The resulting PCR product was purified, sequenced, digested with Nco1 and Bgl II and sub-cloned into the vector pMOG 1051 (FIG. 2). […] Orientation of the insert was determined by PCR. […]

[2] = system: transgenic tobacco line T82 3747 (pFT2: soybean GST 3.3 and homoglutathione synthetase); assay: Herbicide tolerance test, transgenic tobacco line T82 3747; type: in vivo, Nicotiana tabacum
Source text: as §1

[3] = system: Nicotiana tabacum var. Samsun, WT; assay: Herbicide tolerance test, wild-type tobacco; type: in vivo
Procedure: 7.1 The binary vector pFT2 was transformed into Agrobacterium tumefaciens strain LBA 4404 using the freeze thaw method of transformation provided by Holsters et al., 1978. Tobacco transformation and whole plant regeneration was performed using Nicotiana tabacum var. Samsun according to standard protocols detailed by Bevan, 1984. Transformation events were selected on MS-media containing kanamycin. Other transformation methods may be employed for the transformation of other crops, such as soybean. Examples of such methods are referred to below.
9.1 Following tissue culture, kanamycin-resistant plantlets were transferred to 5 inch pots containing John Innes potting compost no. 3. The plants were allowed to develop to approximately the 10-leaf stage and fomesafen applied at 10 g ai ha^−1, formulated with non-ionic surfactant, to the aerial tissue using a track sprayer. Visual assessment of phytotoxicity/plant necrosis is performed 5 days post application.

## CS(=O)(=O)NC(=O)c1cc(Oc2ccc(C(F)(F)F)cc2Cl)ccc1[N+](=O)[O-] [fomesafen]
[1]
  % damage: 15%
[2]
  % damage: 5%
[3]
  % damage: 55%
